{"source": "ChEMBL document CHEMBL4138123", "about": "“Design, synthesis and biological evaluation of novel pyrazolochalcones as potential modulators of PI3K/Akt/mTOR pathway and inducers of apoptosis in breast cancer cells” (Eur J Med Chem, 2017)", "key": {"[1]": {"tested_on": "CAKI-1", "test": "Cytotoxicity against human Caki1 cells assessed as cell growth at 10 uM after 48 hrs by sulforhodamine B assay relative to control", "assay_type": "functional", "details": "CAKI-1, 48 h, read-out: Activity"}, "[2]": {"tested_on": "SNB-75", "test": "Cytotoxicity against human SNB75 cells assessed as cell growth at 100 uM after 48 hrs by sulforhodamine B assay relative to control", "assay_type": "functional", "details": "SNB-75, 48 h, read-out: Activity"}, "[3]": {"tested_on": "SNB-75", "test": "Cytotoxicity against human SNB75 cells assessed as growth inhibition after 48 hrs by sulforhodamine B assay", "assay_type": "functional", "details": "SNB-75, 48 h"}, "[4]": {"tested_on": "CAKI-1", "test": "Cytotoxicity against human Caki1 cells assessed as cell growth at 1 uM after 48 hrs by sulforhodamine B assay relative to control", "assay_type": "functional", "details": "CAKI-1, 48 h, read-out: Activity"}, "[5]": {"tested_on": "CAKI-1", "test": "Cytotoxicity against human Caki1 cells assessed as cell growth at 100 uM after 48 hrs by sulforhodamine B assay relative to control", "assay_type": "functional", "details": "CAKI-1, 48 h, read-out: Activity"}, "[6]": {"tested_on": "SF-295", "test": "Cytotoxicity against human SF295 cells assessed as cell growth at 100 uM after 48 hrs by sulforhodamine B assay relative to control", "assay_type": "functional", "details": "SF-295, 48 h, read-out: Activity"}, "[7]": {"tested_on": "MCF7", "test": "Cell cycle arrest in human MCF7 cells assessed as accumulation at G2/M phase at 2 uM after 24 hrs by flow cytometric analysis (reference value: 2.35%)", "assay_type": "functional"}, "[8]": {"tested_on": "SNB-75", "test": "Cytotoxicity against human SNB75 cells assessed as cell growth at 1 uM after 48 hrs by sulforhodamine B assay relative to control", "assay_type": "functional", "details": "SNB-75, 48 h, read-out: Activity"}, "[9]": {"tested_on": "CAKI-1", "test": "Cytotoxicity against human Caki1 cells assessed as cell growth at 0.01 uM after 48 hrs by sulforhodamine B assay relative to control", "assay_type": "functional", "details": "CAKI-1, 48 h, read-out: Activity"}, "[10]": {"tested_on": "MCF7", "test": "Downregulation of PI3K mRNA expression in human MCF7 cells at 2 uM after 48 hrs by qRT-PCR analysis", "assay_type": "functional, cell-based"}, "[11]": {"tested_on": "SF-295", "test": "Cytotoxicity against human SF295 cells assessed as cell growth at 0.1 uM after 48 hrs by sulforhodamine B assay relative to control", "assay_type": "functional", "details": "SF-295, 48 h, read-out: Activity"}, "[12]": {"tested_on": "CAKI-1", "test": "Cytotoxicity against human Caki1 cells assessed as growth inhibition after 48 hrs by sulforhodamine B assay", "assay_type": "functional", "details": "CAKI-1, 48 h"}, "[13]": {"tested_on": "MCF7", "test": "Upregulation of TP53 mRNA expression in human MCF7 cells at 2 uM after 48 hrs by qRT-PCR analysis", "assay_type": "functional, cell-based"}, "[14]": {"tested_on": "MCF7", "test": "Downregulation of Bcl-2 mRNA expression in human MCF7 cells at 2 uM after 48 hrs by qRT-PCR analysis", "assay_type": "functional, cell-based"}, "[15]": {"tested_on": "SNB-75", "test": "Cytotoxicity against human SNB75 cells assessed as cell growth at 0.01 uM after 48 hrs by sulforhodamine B assay relative to control", "assay_type": "functional", "details": "SNB-75, 48 h, read-out: Activity"}, "[16]": {"tested_on": "MCF7", "test": "Cell cycle arrest in human MCF7 cells assessed as accumulation at G0/G1 phase at 2 uM after 24 hrs by flow cytometric analysis (reference value: 18.4%)", "assay_type": "functional"}, "[17]": {"tested_on": "MCF7", "test": "Downregulation of mTOR protein expression in human MCF7 cells at 2 uM after 24 hrs by Western blot analysis", "assay_type": "functional, cell-based"}, "[18]": {"tested_on": "MCF7", "test": "Downregulation of Akt protein expression in human MCF7 cells at 2 uM after 48 hrs by Alexa/DAPI staining-based immunofluorescence analysis", "assay_type": "functional, cell-based"}, "[19]": {"tested_on": "MCF7", "test": "Induction of apoptosis in human MCF7 cells assessed as viable cells at 2 uM after 24 hrs by Annexin-V FITC/propidium iodide staining-based FACS analysis (reference value: 93.9%)", "assay_type": "functional", "details": "MCF7, 24 h, read-out: Activity"}, "[20]": {"tested_on": "SNB-75", "test": "Cytotoxicity against human SNB75 cells assessed as cell growth at 10 uM after 48 hrs by sulforhodamine B assay relative to control", "assay_type": "functional", "details": "SNB-75, 48 h, read-out: Activity"}, "[21]": {"tested_on": "MCF7", "test": "Upregulation of PTEN protein expression in human MCF7 cells at 2 uM after 24 hrs by Western blot analysis", "assay_type": "functional, cell-based"}, "[22]": {"tested_on": "SF-295", "test": "Cytotoxicity against human SF295 cells assessed as cell growth at 1 uM after 48 hrs by sulforhodamine B assay relative to control", "assay_type": "functional", "details": "SF-295, 48 h, read-out: Activity"}, "[23]": {"tested_on": "SF-295", "test": "Cytotoxicity against human SF295 cells assessed as cell growth at 0.01 uM after 48 hrs by sulforhodamine B assay relative to control", "assay_type": "functional", "details": "SF-295, 48 h, read-out: Activity"}, "[24]": {"tested_on": "SNB-75", "test": "Cytotoxicity against human SNB75 cells assessed as cell growth at 0.1 uM after 48 hrs by sulforhodamine B assay relative to control", "assay_type": "functional", "details": "SNB-75, 48 h, read-out: Activity"}, "[25]": {"tested_on": "SF-295", "test": "Cytotoxicity against human SF295 cells assessed as growth inhibition after 48 hrs by sulforhodamine B assay", "assay_type": "functional", "details": "SF-295, 48 h"}, "[26]": {"tested_on": "SF-295", "test": "Cytotoxicity against human SF295 cells assessed as cell growth at 10 uM after 48 hrs by sulforhodamine B assay relative to control", "assay_type": "functional", "details": "SF-295, 48 h, read-out: Activity"}}, "note": "Calls of active or inactive are those of the source. No cut-off for these calls is given here.", "data": [{"smiles": "COc1ccc(-c2cc(/C=C/C(=O)c3ccc(OC)c(OC)c3)[nH]n2)cc1", "values": [{"measurement": "growth at 10 µM", "setting": "[1]", "value": -64, "unit": "%"}, {"measurement": "growth at 100 µM", "setting": "[2]", "value": -100, "unit": "%"}, {"measurement": "GI50", "setting": "[3]", "value": 1.55, "unit": "µM"}, {"measurement": "LC50 (concentration killing 50% of cells)", "setting": "[3]", "value": 9.51, "unit": "µM"}, {"measurement": "TGI", "setting": "[3]", "value": 3.84, "unit": "µM"}, {"measurement": "growth at 1 µM", "setting": "[4]", "value": 77, "unit": "%"}, {"measurement": "growth at 100 µM", "setting": "[5]", "value": -70, "unit": "%"}, {"measurement": "growth at 100 µM", "setting": "[6]", "value": -83, "unit": "%"}, {"measurement": "Activity", "setting": "[7]", "value": 18.6, "unit": "%"}, {"measurement": "growth at 1 µM", "setting": "[8]", "value": 74, "unit": "%"}, {"measurement": "growth at 0.01 µM", "setting": "[9]", "value": 98, "unit": "%"}, {"measurement": "Activity", "setting": "[10]", "value": "Active"}, {"measurement": "growth at 0.1 µM", "setting": "[11]", "value": 97, "unit": "%"}, {"measurement": "GI50", "setting": "[12]", "value": 1.55, "unit": "µM"}, {"measurement": "LC50", "setting": "[12]", "value": 7.96, "unit": "µM"}, {"measurement": "TGI", "setting": "[12]", "value": 3.52, "unit": "µM"}, {"measurement": "Activity", "setting": "[13]", "value": "Active"}, {"measurement": "Activity", "setting": "[14]", "value": "Active"}, {"measurement": "growth at 0.01 µM", "setting": "[15]", "value": 88, "unit": "%"}, {"measurement": "Activity", "setting": "[16]", "value": 15.3, "unit": "%"}, {"measurement": "Activity", "setting": "[17]", "value": "Active"}, {"measurement": "Activity", "setting": "[18]", "value": "Active"}, {"measurement": "viability at 2 µM", "setting": "[19]", "value": 93.8, "unit": "%"}, {"measurement": "growth at 10 µM", "setting": "[20]", "value": -53, "unit": "%"}, {"measurement": "Activity", "setting": "[21]", "value": "Active"}, {"measurement": "growth at 1 µM", "setting": "[22]", "value": 88, "unit": "%"}, {"measurement": "growth at 0.01 µM", "setting": "[23]", "value": 98, "unit": "%"}, {"measurement": "growth at 0.1 µM", "setting": "[24]", "value": 79, "unit": "%"}, {"measurement": "GI50", "setting": "[25]", "value": 2.08, "unit": "µM"}, {"measurement": "LC50", "setting": "[25]", "value": 22, "unit": "µM"}, {"measurement": "TGI", "setting": "[25]", "value": 5.37, "unit": "µM"}, {"measurement": "growth at 10 µM", "setting": "[26]", "value": -33, "unit": "%"}]}]}
